From patent US4278762A, “Method for the quantitative determination of plasminogen activators” (Pentapharm AG, priority 1976, dated 1981)
Where a name gives a salt, the structure may show the parent alone. Non-standard residues stand in square brackets, D forms with d. Residues, ends and D or L forms follow the SMILES beside them. *: point of attachment. pNA = O=[N+]([O-])c1ccc(N*)cc1; Chg = N[C@H](C(=O)O)C1CCCCC1; Cbz = O=C(OCc1ccccc1)*; Bz = O=C(c1ccccc1)*

What was measured:
Format in all cases: biochemical
[1] = tested on: human plasmin; assay: Enzyme quantity splitting substrate I at 1 μmole pNA per minute (Table II), plasmin; settings: 37° C., pH 8.4, ionic strength 0.3, substrate concentration 10^-4 mole
Procedure: CU is the casein unit which is measured on casein under standard conditions.
(§1) In the first column of Table II are listed the quantities of the various enzymes which split substrate I at a temperature of 37° C., a pH of 8.4, an ionic strength of 0.3 and a substrate concentration of 10^-4 mole with a velocity of 1 μmole per minute. In the second column the corresponding enzyme quantity, expressed in other enzyme units, is indicated.

[2] = target: T1, bovine trypsin (Bos taurus, UniProt P00760); assay: Activity of bovine trypsin at constant substrate and enzyme concentrations (Table IV); settings: substrate concentration 2 × 10^-4 M; pH 8.4, ionic strength 0.30, 37° C., 405 nm
T1 sequence (P00760 24-246): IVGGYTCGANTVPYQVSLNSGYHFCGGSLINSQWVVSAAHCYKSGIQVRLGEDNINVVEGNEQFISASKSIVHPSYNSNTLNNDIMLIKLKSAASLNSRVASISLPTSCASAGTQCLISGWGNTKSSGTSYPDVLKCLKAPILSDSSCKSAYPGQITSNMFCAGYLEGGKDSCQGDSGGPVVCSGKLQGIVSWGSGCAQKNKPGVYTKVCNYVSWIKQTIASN
Procedure: The results listed in Table IV were obtained under the following experimental conditions: In a measuring vessel 1.7 ml of tris-imidazole buffer having a pH of 8.4 and an ionic strength of 0.30 were mixed at 37° C. with 0.1 ml of an aqueous trypsin solution having a concentration of 2 NF units of trypsin per ml. To the mixture 0.2 ml of a 2×10^-3 molar solution of the substrate to be tested was added. Thereafter, the quantity of p-nitroaniline released from the substrate by the action of the trypsin was determined by measuring the change in the optical density Δ OD per minute at a wave length of 405 nm.

[3] = target: T2, urokinase (Homo sapiens, UniProt P00749); assay: Determination of urokinase concentration with substrate I (ΔOD versus urokinase quantity); settings: ΔOD within 10 minutes
T2 construct: also urine of healthy test persons
Procedure: In the appended drawing the sole figure represents a graph in which the change in the optical density Δ OD caused by the hydrolytic action of various quantities of urokinase on substrate I within 10 minutes is plotted as a function of the urokinase quantity in a co-ordinate system. From this graph it can be seen that urokinase concentrations can be determined accurately in the range of 1 to 10 CTA/ml. In the determination of the urokinase content in the urine of 14 healthy test persons values of about 8 CTA units per ml of urine were found.

[4] = tested on: urine kallikrein; assay: Enzyme quantity splitting substrate I at 1 μmole pNA per minute (Table II), urine kallikrein
Procedure: BAEE (Benzoyl-L-arginine ethyl ester)--1 BAEE unit of urine kallikrein is that quantity of enzyme which hydrolyzes 1 μmole of benzoyl-L-arginine ethyl ester per minute under standard conditions.
as §1

[5] = tested on: human thrombin; assay: Enzyme quantity splitting substrate I at 1 μmole pNA per minute (Table II), thrombin
Procedure: NIH is a unit which was standardized by the "US National Institute of Health".
as §1

[6] = target: T2, urokinase; assay: Enzyme quantity splitting substrate I at 1 μmole pNA per minute (Table II), urokinase; settings: 37° C., pH 8.4, ionic strength 0.3, substrate concentration 10^-4 mole
Procedure: as §1

[7] = target: T1, bovine trypsin; assay: Enzyme quantity splitting substrate I at 1 μmole pNA per minute (Table II), trypsin; settings: 37° C., pH 8.4, ionic strength 0.3, substrate concentration 10^-4 mole
Procedure: NF is the trypsin unit, i.e. that quantity of enzyme which causes a change in the absorption Δ OD of 0.003 per minute, measured on benzoyl-L-arginine ethyl ester under standard conditions (cf. "The National Formulary XII", edited by "The American Pharmaceutical Association", Washington, D.C., 1965, pages 417-418).
as §1

[8] = target: T2, urokinase; assay: Kinetic constants Km and vmax of substrate hydrolysis by urokinase (Lineweaver-Burk); settings: per CTA unit, pH 8.4, ionic strength 0.30, 37° C.
Procedure: The enzyme and the substrate are mixed in a buffer solution, and the hydrolysis reaction is followed for 2 to 30 minutes. The concentration of substate [S] is varied, whereas the enzyme concentration is kept constant. If the extinction (OD=optical density) is plotted in a co-ordinate system as a function of time, a curve is obtained the tangent of which at time zero corresponds to the ideal course of the hydrolysis. By means of this tangent the initial rate of the hydrolysis can be determined.
If 1/v is plotted against (1/[S]), a Lineweaver-Burk diagram (cf. "Kurzes Lehrbuch der Biochemie" by P. KARLSON, Georg Thieme-Verlag, Stuttgart, 1967, p. 70) is obtained from which vmax and Km can be determined graphically.
For the determination of the kinetic constants Km and vmax listed in Table I aqueous dilution series of the substrates with concentrations from 0.1 to 2 μmoles/ml were used. […] The value of the quantity of p-nitroaniline formed per minute is a measure for the rate of hydrolysis at a given substrate concentration. […] The kinetic constants Km and vmax were determined from the points of intersection of the curves with the abscissa and the ordinate.

[9] = target: T3, trypsin (Bos taurus, UniProt P00760); assay: Determination of trypsin in duodenal juice with substrate; settings: per ml of test sample; pH 8.4, ionic strength 0.30, 37° C., 405 nm
T3 construct: b360 concerns trypsin in duodenal juice
T3 sequence (P00760 24-246): T1 sequence (P00760 24-246)
Procedure: The determination of trypsin in duodenal juice can be carried out for instance as follows: 1.79 ml of tris-imidazole buffer having a pH of 8.4 and an ionic strength of 0.30 are mixed with 0.01 ml of duodenal juice at 37° C. in a measuring vessel. Thereafter, the mixture is rapidly mixed with 0.2 ml of a 2×10^-3 molar solution of a substrate of this invention. The quantity of p-nitroaniline released from the substrate by the action of trypsin is determined by measuring the change in the optical density Δ OD per minute at a wave length of 405 nm. The quantity of p-nitroaniline released per minute or the corresponding change in the optical density is proportional to the trypsin activity. When using the substrate prepared according to Example 10, i.e. N^α -Cbo-C.cyclohexylglycyl-Gly-Arg-pNA.HCl, trypsin can be determined for instance at concentrations as low as 0.01 NF unit per ml of test sample.

[10] = 37° C., pH 8.4, ionic strength 0.3, substrate concentration 10^-4 mole

Row | enzyme quantity releasing 1 μmole of pNA per minute from substrate I, in corresponding other units [1] | Quantity in nanomoles of p-nitroaniline enzymatically released from the substrate by 1 NF unit of trypsin in 1 minute [2] | range of urokinase concentrations that can be determined accurately [3] | enzyme quantity releasing 1 μmole of pNA per minute from substrate I, in corresponding other units [4, 10] | splitting by kallikrein present in urine (in words) ([4]; conclusion from Table II) | enzyme quantity releasing 1 μmole of pNA per minute from substrate I, in corresponding other units [5, 10] | splitting by thrombin (in words) ([5]; conclusion from Table II) | enzyme quantity releasing 1 μmole of pNA per minute from substrate I, in corresponding other units [6] | enzyme quantity releasing 1 μmole of pNA per minute from substrate I, in corresponding other units [7] | Vmax [8] | SMILES | lowest trypsin concentration that can be determined [9]
1 | 6850 CU | 20,9 nanomoles | 1 to 10 CTA/ml | 1688 BAEE | split but little | 2174 NIH | split very little and unspecifically | 20250 CTA | 36.6 NF | 7.27 × 10^-5 μmole/min. CTA | CC(C)[C@H](NC(=O)c1ccccc1)C(=O)NCC(=O)N[C@@H](CCCNC(=N)N)C(=O)Nc1ccc([N+](=O)[O-])cc1 [Substrate I, N^α -Bz-Val-Gly-Arg-pNA.HCl] (Bz-Val-Gly-Arg-pNA) | 
2 |  |  |  |  |  |  |  |  |  |  | N=C(N)NCCC[C@H](NC(=O)CNC(=O)[C@@H](NC(=O)OCc1ccccc1)C1CCCCC1)C(=O)Nc1ccc([N+](=O)[O-])cc1 [Substrate X, N^α -Cbo-C.Cyclohexylglycyl-Gly-Arg-pNA.HCl] (Cbz-[Chg]-Gly-Arg-pNA) | ≥ 0.01 NF unit per ml
